Laboratory results as given in patent US5502068A, “Cyclopropylpyrroloindole-oligopeptide anticancer agents” (Synphar Laboratories, Inc., priority 1995, dated 1996).
Values after ≈ are worked out from the molar mass of the structure shown. “Also recorded” adds a separate entry of the source. Where two headings read alike, the source gives them in different places.

How the values were obtained:
[1] = test system: KB human nasopharyngeal carcinoma cells; experiment: Cytotoxicity (antiproliferative effect), crystal violet staining; format: cell-based; settings: Homo sapiens, KB, 72 h
Experimental: KB human nasopharyngeal carcinoma cells, were maintained in RPMI 1640 medium supplemented with 10% fetal bovine serum. KB cells were cultured in plastic tissue culture flasks and kept in an incubator at 37° C. in humidified air containing 5% CO2. These cells were free of Mycoplasma as determined with Hoechst 33258 stain.
The antiproliferative effect of compounds was determined using cell staining method by crystal violet.
One hundred-μ1 cultures were established at 10^3 cells/well in 96-well tissue culture plates (Nunc, Roskilde, Denmark). After 24 h. 100 µl of the medium containing 2 times concentrated the compounds were added to the cell culture. After an additional 3 days culture, cells were fixed to 20 µl of 25% glutaraldehyde for 15 minutes and washed with water, dried and stained with 0.05% crystal violet in 20% methanol for 15 minutes. After washing with water and drying, crystal violet was extracted with 100 µl of 50 mM NaH2 PO4 /ethanol (1:1 v/v) and OD540 was measured by the multiscanphotometer (Corona, Tokyo, Japan). A linear relationship between cell number and the amount of dye binding was found over the range of cell densities observed all experiments.

DNA [2] = experiment: Site and sequence selective DNA alkylation by polyacrylamide gel electrophoresis (PAGE); format: biochemical; settings: for Alkylation Intensity at AATA*: site AATA*; for Alkylation Intensity at ATAA*: site ATAA*; for Alkylation Intensity at CTTA: site CTTA; for Alkylation Intensity at GAAA: site GAAA; for Alkylation Intensity at GATA*: site GATA*; for Alkylation Intensity at GTTA: site GTTA; for Alkylation Intensity at TATA: site TATA; for Alkylation Intensity at TTAA*: site TTAA*; for Alkylation Intensity at TTTA: site TTTA
Description: In contrast to FCE 24517, clear evidence of site and sequence selective DNA alkylation was obtained for the new CPI-oligopeptides by polyacrylamide gel electrophoresis (PAGE). […] Table 5 quantifies and compares the alkylation intensities at different sites for the CPI-oligopeptides with CC-1065. […] A detailed analysis of the frequency of occurrence of bases flanking the prominent alkylation sites for YW-052 and YW-053 compared with CC-1065 is given in Table 7.

DNA [3] = settings: in words, cited from earlier work
[4] = clinical applications/usage; in words; cited from earlier work
[5] = test system: P388 lymphocytic leukemia cells; experiment: Antitumor efficacy, i.p. P388 lymphocytic leukemia in CDF1 mice; format: in vivo, mouse; settings: maximum ILS, P388 ip
Experimental: All compounds were dissolved in dimethyl sulfoxide (DMSO), diluted in sterile 0.9% NaCl solution to 5% final DMSO concentration. BALB/c X DBA/2F1 (CDF1) mice were purchased from Japan CLEA. P388 lymphocytic leukemia cells were inoculated intraperitoneally (10^6 cells) 1 day prior to treatment into 6 week-old male CDF1 mice, and compounds were injected intraperitoneally in a total volume of 0.1 ml/10g mouse body weight. Efficacy for these models was expressed as the Increase in life span (ILS) of treated mice in comparison to untreated tumor-bearing mice. Experiment was completed on day 30 after tumor inoculation, and survivor on that day was evaluated as cured animal. Time to death (mean±SD.n=9) for untreated animals was 11.5±1.2 day and for solvent treated animals was 11.7±2.1 day.

[6] = Table 1, KB cells, 3 days, read-out: KB cells, toxicity TD50
[7] = Table 2, KB cells, 3 days, read-out: KB cells, toxicity TD50
[8] = Table 4, KB cell, read-out: Cytotoxicity IC50 (KB cell)

COc1cccc2c1C(=O)c1c(O)c3c(c(O)c1C2=O)C[C@@](O)(C(=O)CO)C[C@@H]3O[C@H]1C[C@H](N)[C@H](O)[C@H](C)O1 [Adriamycin, reference compound]
IC50 [1, 6]: 11 ng/mL (≈ 20.2 nM) | IC50 [1, 7]: 5 ng/mL (≈ 9.2 nM) | IC50 ([1]; Table 3, KB cells, 3 days, read-out: KB cells, toxicity TD50): 4.4 ng/mL (≈ 8.1 nM)

COc1c(O)c2c(c3cc(C(=O)N4CCc5c4c(O)c(OC)c4[nH]c(C(=O)N6CC7CC78C6=CC(=O)c6[nH]cc(C)c68)cc54)[nH]c13)CCN2C(N)=O (stereo not shown) [CC-1065, reference compound]
IC50 [1, 7]: 0.001 ng/mL (≈ 0.00142 nM) | Frequency of Occurrence, base A at +1 (DNA [2]; A, position +1): 30% | Frequency of Occurrence, base A at +2 (DNA [2]; A, position +2): 30% | Frequency of Occurrence, base A at +3 (DNA [2]; A, position +3): 20% | Frequency of Occurrence, base A at -1 (DNA [2]; A, position -1): 40% | Frequency of Occurrence, base A at -2 (DNA [2]; A, position -2): 40% | Frequency of Occurrence, base A at -3 (DNA [2]; A, position -3): 30% | Frequency of Occurrence, A/T at +1 (DNA [2]; A/T, position +1): 80% | Frequency of Occurrence, A/T at +2 (DNA [2]; A/T, position +2): 60% | Frequency of Occurrence, A/T at +3 (DNA [2]; A/T, position +3): 50% | Frequency of Occurrence, A/T at -1 (DNA [2]; A/T, position -1): 100% | Frequency of Occurrence, A/T at -2 (DNA [2]; A/T, position -2): 100% | Frequency of Occurrence, A/T at -3 (DNA [2]; A/T, position -3): 60% | Frequency of Occurrence, base C at +3 (DNA [2]; C, position +3): 10% | Frequency of Occurrence, base C at -3 (DNA [2]; C, position -3): 30% | Frequency of Occurrence, base G at +1 (DNA [2]; G, position +1): 20% | Frequency of Occurrence, base G at +2 (DNA [2]; G, position +2): 40% | Frequency of Occurrence, base G at +3 (DNA [2]; G, position +3): 40% | Frequency of Occurrence, base G at -3 (DNA [2]; G, position -3): 10% | DNA alkylation (DNA [2]; PAGE, in words): alkylate DNA strongly | Frequency of Occurrence, base T at +1 (DNA [2]; T, position +1): 50% | Frequency of Occurrence, base T at +2 (DNA [2]; T, position +2): 30% | Frequency of Occurrence, base T at +3 (DNA [2]; T, position +3): 30% | Frequency of Occurrence, base T at -1 (DNA [2]; T, position -1): 60% | Frequency of Occurrence, base T at -2 (DNA [2]; T, position -2): 60% | Frequency of Occurrence, base T at -3 (DNA [2]; T, position -3): 30% | Frequency of Occurrence, A* (site of alkylation) (DNA [2]; alkylated base A*): 100% | Frequency of Occurrence, G* (site of alkylation) (DNA [2]; alkylated base G*): 0% | Alkylation Sites (5'-3'), Moderate (DNA [2]; moderate sites): TATA, TTAA, GTTA; also recorded: CTTA, GGAA | Alkylation Intensity at AATA* (DNA [2]): 1.08 | Alkylation Intensity at ATAA* (DNA [2]; first column of Table 5): 1.47 | Alkylation Intensity at ATAA* (DNA [2]; third column of Table 5): .96 | Alkylation Intensity at CTTA (DNA [2]): .61 | Alkylation Intensity at GAAA (DNA [2]): .35 | Alkylation Intensity at GATA* (DNA [2]): .80 | Alkylation Intensity at GTTA (DNA [2]): 1.20 | Alkylation Intensity at TATA (DNA [2]): 1.02 | Alkylation Intensity at TTAA* (DNA [2]): .80 | Alkylation Intensity at TTTA (DNA [2]): 1.09 | Alkylation Sites (5'-3'), Strong (DNA [2]; strong sites): TTTA, GATA, ATAA; also recorded: AATA, ATAA | DNA sequence recognition (DNA [3]): strictly AT recognizing; also recorded: strictly limited AATT recognition | toxicity (delayed death syndrome) [4]: too toxic for clinical applications because of the delayed death syndrome; also recorded: too toxic for clinical usage

Cn1cc(NC(=O)c2cc(NC(=O)c3cc(NC(=O)c4ccc(N(CCCl)CCCl)cc4)cn3C)cn2C)cc1C(=O)NCCC(=N)N [FCE 24517]
DNA alkylation (DNA [3]; Arcamone et al., 1989): shows no evidence of DNA alkylation | DNA sequence recognition (DNA [3]): strictly AT recognizing; also recorded: strictly limited AATT recognition

CC(=O)Nc1cc(C(=O)N2CC3CC34C2=CC(=O)c2[nH]cc(C)c24)n(C)c1 (stereo not shown) [YW-031]
IC50 [1, 6]: 0.0324 ng/mL (≈ 0.0889 nM)

Cc1c[nH]c2c1C13CC1CN(C(=O)c1cccn1C)C3=CC2=O (stereo not shown) [YW-032]
IC50 [1, 6]: 38 ng/mL (≈ 124 nM) | Alkylation Intensity at AATA* (DNA [2]): 1.35 | Alkylation Intensity at ATAA* (DNA [2]; first column of Table 5): .88 | Alkylation Intensity at ATAA* (DNA [2]; third column of Table 5): 1.01 | Alkylation Intensity at CTTA (DNA [2]): .61 | Alkylation Intensity at GAAA (DNA [2]): .79 | Alkylation Intensity at GATA* (DNA [2]): 1.35 | Alkylation Intensity at GTTA (DNA [2]): 1.03 | Alkylation Intensity at TATA (DNA [2]): 1.05 | Alkylation Intensity at TTAA* (DNA [2]): .71 | Alkylation Intensity at TTTA (DNA [2]): .63

Cc1c[nH]c2c1C13CC1CN(C(=O)CCc1cccn1C)C3=CC2=O (stereo not shown) [YW-033]
IC50 [1, 6]: 263 ng/mL (≈ 784 nM) | Alkylation Intensity at AATA* (DNA [2]): 1.42 | Alkylation Intensity at ATAA* (DNA [2]; first column of Table 5): .95 | Alkylation Intensity at ATAA* (DNA [2]; third column of Table 5): 1.11 | Alkylation Intensity at CTTA (DNA [2]): .68 | Alkylation Intensity at GAAA (DNA [2]): .84 | Alkylation Intensity at GATA* (DNA [2]): 1.41 | Alkylation Intensity at GTTA (DNA [2]): 1.27 | Alkylation Intensity at TATA (DNA [2]): 1.40 | Alkylation Intensity at TTAA* (DNA [2]): .84 | Alkylation Intensity at TTTA (DNA [2]): .97

Cc1c[nH]c2c1C13CC1CN(C(=O)C=Cc1cccn1C)C3=CC2=O (stereo not shown) [YW-034]
IC50 [1, 6]: 0.275 ng/mL (≈ 0.825 nM) | IC50 [1, 8]: 0.27 ng/mL (≈ 0.81 nM) | In vivo ILS P388 (ip) ([5]; 1 mg/kg ip): 37.9% | Alkylation Intensity at AATA* (DNA [2]): 1.30 | Alkylation Intensity at ATAA* (DNA [2]; first column of Table 5): .71 | Alkylation Intensity at ATAA* (DNA [2]; third column of Table 5): .84 | Alkylation Intensity at CTTA (DNA [2]): .44 | Alkylation Intensity at GAAA (DNA [2]): .55 | Alkylation Intensity at GATA* (DNA [2]): 1.09 | Alkylation Intensity at GTTA (DNA [2]): .73 | Alkylation Intensity at TATA (DNA [2]): .77 | Alkylation Intensity at TTAA* (DNA [2]): .52 | Alkylation Intensity at TTTA (DNA [2]): .49

CCC(=O)Nc1cc(C(=O)N2CC3CC34C2=CC(=O)c2[nH]cc(C)c24)n(C)c1 (stereo not shown) [YW-035]
IC50 [1, 8]: 1 ng/mL (≈ 2.64 nM) | In vivo ILS P388 (ip) ([5]; 0.1 mg/kg ip): 56.5%
